{
  "source": "patent US5696112A",
  "about": "“Fused heterocyclic azepines as vasopressin antagonists” (American Cyanamid Company, priority 1995, dated 1997)",
  "key": {"[1]": {"biological_target": "T1, Rat Kidney Medullary V2 Receptors (vasopressin V2) (Rattus norvegicus, UniProt Q00788)", "T1 construct": "Medullary tissues from rat kidneys are dissected out; from tissue; host or cells: rat kidney medulla membranes", "T1 sequence (Q00788 whole entry)": "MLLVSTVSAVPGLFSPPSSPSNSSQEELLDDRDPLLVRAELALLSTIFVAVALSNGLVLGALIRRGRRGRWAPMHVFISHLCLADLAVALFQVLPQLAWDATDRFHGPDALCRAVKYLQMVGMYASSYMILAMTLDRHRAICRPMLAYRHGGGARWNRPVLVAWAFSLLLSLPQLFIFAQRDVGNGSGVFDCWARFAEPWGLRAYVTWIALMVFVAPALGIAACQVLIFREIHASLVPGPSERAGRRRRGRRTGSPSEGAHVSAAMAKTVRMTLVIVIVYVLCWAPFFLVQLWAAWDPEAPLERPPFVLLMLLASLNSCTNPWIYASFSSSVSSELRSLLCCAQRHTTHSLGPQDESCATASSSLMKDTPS", "assay": "Binding Assay to Rat Kidney Medullary V2 Receptors", "details": "rat kidney medullary V2, [3H]Arg8-vasopressin", "method_in_brief": "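Membranes from rat kidney medulla (200 μg protein) were equilibrated for 120 min on the bench with [3H]arginine8-vasopressin, added as a 0.8 nM solution, in Tris-HCl containing MgCl2, heat-inactivated BSA and protease inhibitors. Compounds were dissolved in 50% DMSO, and 1.0 μM unlabeled ligand gave nonspecific binding. Filtration, scintillation counting and competition analysis gave IC50.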"}, "Vasopressin V2": {"system": "Vasopressin V2", "assay": "Vasopressin V2 Antagonist Activity in Conscious Hydrated Rats", "assay_type": "in vivo, rat", "details": "AVP 0.4 μg/kg i.p.", "procedure": "Vasopressin V2 Antagonist Activity in conscious Hydrated Rats Conscious hydrated rats are treated with compounds under study from 0.1 to 100 mg/kg orally or vehicle. Two to four rats are used for each compound. One hour later, arginine vasopressin (AVP, antidiuretic hormone, ADH) dissolved in peanut oil is administered at 0.4 μg/kg intraperitoneally. Two rats in each test would not receive arginine vasopressin but only the vehicle (peanut oil) to serve as water-loading control. Twenty minutes later each rat is given 30 mL/kg of deionized water orally by gavage and is placed individually in a metabolic cage equipped with a funnel and a graduated glass cylinder to collect urine for four hours. Urine volume is measured and osmolality analyzed by use of a Fiske One-Ten osmometer (Fiske Assoc., Norwood, Mass. USA). Urinary sodium, potassium, and chloride are analyzed by use of ion-specific electrodes in a Beckman E3 (Electrolyte 3) Analyzer. In the following results, […] and […] osmolality relative to AVP-control indicates activity."}, "[2]": {"biological_target": "T2, Human V2 Vasopressin Receptor (Homo sapiens, UniProt P30518)", "T2 construct": "expressed in transfected cells; host or cells: mouse fibroblast cell line LV-2", "T2 sequence (P30518 whole entry)": "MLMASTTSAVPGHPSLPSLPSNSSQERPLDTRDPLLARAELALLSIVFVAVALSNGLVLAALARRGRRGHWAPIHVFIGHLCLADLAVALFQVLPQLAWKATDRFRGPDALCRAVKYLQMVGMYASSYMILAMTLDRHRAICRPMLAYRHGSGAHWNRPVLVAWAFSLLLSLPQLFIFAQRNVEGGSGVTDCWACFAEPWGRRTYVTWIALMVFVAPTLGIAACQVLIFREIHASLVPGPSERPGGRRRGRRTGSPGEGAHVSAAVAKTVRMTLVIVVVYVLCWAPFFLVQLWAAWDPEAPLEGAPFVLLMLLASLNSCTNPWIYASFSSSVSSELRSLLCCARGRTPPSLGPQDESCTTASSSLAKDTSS", "assay": "Binding to Membranes of Mouse Fibroblast Cell Line (LV-2) Transfected with the cDNA Expressing the Human V2 Receptor", "details": "LV-2 cell membranes", "procedure": "Binding to Membranes Of Mouse Fibroblast Cell Line (LV-2) Transfected with the cDNA expressing the Human V2 Vasopressin Receptor\nFlasks of 175 ml capacity, containing attached cells grown to confluence are cleared of culture medium by aspiration. The flasks containing the attached cells are rinsed with 2×5 ml of phosphate buffered saline (PBS) and the liquid aspirated off each time. Finally, 5 ml of an enzyme free dissociation Hank's based solution (Specialty Media, Inc., Lafayette, N.J.) is added and the flasks are left undisturbed for 2 min. The content of all flasks is poured into a centrifuge tube and the cells pelleted at 300×g for 15 min. The Hank's based solution is aspirated off and the cells homo-genized with a polytron at setting #6 for 10 sec in 10.0 mM Tris.HCl buffer, pH 7.4 containing 0.25M sucrose and 1.0 mM EDTA. The homogenate is centrifuged at 1500×g for 10 min to remove ghost membranes. The supernatant fluid is centrifuged at 100,000×g for 60 min to pellet the receptor protein. Upon completion, the pellet is resuspended in a small volume of 50.0 mM Tris.HCl buffer, pH 7.4. The protein content is determined by the Lowry method and the receptor membranes are suspended in 50.0 mM Tris.HCl buffer containing 0.1 mM phenylmethylsulfonylfluoride (PMSF) and 0.2% bovine serum albumin (BSA) to give 2.5 mg receptor protein per ml of suspension.\nFor binding experiments, the following is added in μl volume to wells of a 96 well format of a microtiter plate: 100.0 μl of 100.0 mM Tris.HCl buffer containing 0.2% heat inactivated BSA, 10.0 mM MgCl2 and a mixture of protease inhibitors: leupeptin, 1.0 mg %; aprotinin, 1.0 mg %; 1,10-phenanthroline, 2.0 mg %; trypsin inhibitor, 10.0 mg % and 0.1 mM PMSF, 20.0 μl of [^3 H]Arginine^8, vasopressin (S.A. 75.0 Ci/mmole) at 0.8 nM and the reaction initiated by the addition of 80.0 μl of tissue membranes (200.0 μg tissue protein). The plates are left undisturbed on the bench top for 120 min to reach equilbrium. Non-specific binding is assessed in the presence of 1.0 μM of unlabeled ligand, added in 20 μl volume. For test compounds, these are solubilized in 50% dimethylsulfoxide (DMSO) and added in 20.0 μl volume to a final incubation volume of 200 μl . Upon completion of binding, the content of each well is filtered off, using a Brandel® cell Harvester (Gaithersburg, Md.). The radioactivity trapped on the filter disk by the ligand-receptor complex is assessed by liquid scintillation counting in a Packard LS Counter, with an efficiency of 65% for tritium. The data are analyzed for IC50 values by the LUNDON-2 program for competition (LUNDON SOFTWARE, OH)."}},
  "data": [
    {"compound": "O=C(Nc1ccc(C(=O)N2CCCCc3sccc32)cc1)c1cc(Cl)ccc1Cl", "note": "[Example 9, N-[4-[(5,6,7,8-Tetrahydro-4H-thieno[3,2-b]azepin-4-yl)carbonyl]phenyl]2,5-dichlorobenzamide]", "values": [
      {"measurement": "IC50", "setting": "[1]", "value": 0.034, "unit": "µM"}
    ]},
    {"compound": "Cc1ccccc1CC(=O)Nc1ccc(C(=O)N2CCCCc3sccc32)cc1", "note": "[Example 13, N-[4-[(5,6,7,8-Tetrahydro-4H-thieno[3,2-b]azepin-4-yl)carbonyl]phenyl]2-methylbenzeneacetamide]", "values": [
      {"measurement": "IC50", "setting": "[1]", "value": 0.01, "unit": "µM"},
      {"measurement": "Osmolality", "setting": "Vasopressin V2; 30 mg/kg P.O.", "value": 516, "unit": "mOsm/kg"},
      {"measurement": "Urine Volume", "setting": "Vasopressin V2; 30 mg/kg P.O.", "value": 9.5, "unit": "ml/4 hours"}
    ]},
    {"compound": "O=C(Nc1ccc(C(=O)N2CCCCc3sccc32)c(Cl)c1)c1ccc(Cl)cc1Cl", "note": "[Example 68, N-[4-[(5,6,7,8-Tetrahydro-4H-thieno[3,2-b]azepin-4-yl)carbonyl]-3-chlorophenyl]-2,4-dichlorobenzamide]", "values": [
      {"measurement": "IC50", "setting": "[2]", "value": 0.022, "unit": "µM"},
      {"measurement": "Osmolality", "setting": "Vasopressin V2; 10 mg/kg P.O.", "value": 647, "unit": "mOsm/kg"},
      {"measurement": "Urine Volume", "setting": "Vasopressin V2; 10 mg/kg P.O.", "value": 10.3, "unit": "ml/4 hours"}
    ]},
    {"compound": "Cc1ccc(F)cc1C(=O)Nc1ccc(C(=O)N2CCCCc3sccc32)c(Cl)c1", "note": "[Example 70, N-[4-[(5,6,7,8-Tetrahydro-4H-thieno[3,2-b]azepin-4-yl)carbonyl]-3-chlorophenyl]-5-fluoro-2-methylbenzamide]", "values": [
      {"measurement": "IC50", "setting": "[2]", "value": 0.0034, "unit": "µM"},
      {"measurement": "Osmolality", "setting": "Vasopressin V2; 10 mg/kg P.O.", "value": 1070, "unit": "mOsm/kg"},
      {"measurement": "Urine Volume", "setting": "Vasopressin V2; 10 mg/kg P.O.", "value": 4, "unit": "ml/4 hours"}
    ]},
    {"compound": "O=C(Nc1ccc(C(=O)N2CCCCc3sc(Cl)cc32)cc1)c1ccc(Cl)cc1Cl", "note": "[Example 93, 2,4-Dichloro-N-[4-[(2-chloro-5,6,7,8-tetrahydro-4H-thieno[3,2-b]azepin-4-yl)carbonyl]phenyl]benzamide]", "values": [
      {"measurement": "IC50", "setting": "[1]", "value": 0.019, "unit": "µM"},
      {"measurement": "Osmolality", "setting": "Vasopressin V2; 10 mg/kg P.O.", "value": 1056, "unit": "mOsm/kg"},
      {"measurement": "Urine Volume", "setting": "Vasopressin V2; 10 mg/kg P.O.", "value": 7.6, "unit": "ml/4 hours"}
    ]},
    {"compound": "Cc1c(F)cccc1C(=O)Nc1ccc(C(=O)N2CCCCc3sc(Cl)cc32)cc1", "note": "[Example 94, N-[4-[(2-Chloro-5,6,7,8-tetrahydro-4H-thieno[3,2-b]azepin-4-yl)carbonyl]phenyl]-3-fluoro-2-methylbenzamide]", "values": [
      {"measurement": "IC50", "setting": "[1]", "value": 0.01, "unit": "µM"},
      {"measurement": "Osmolality", "setting": "Vasopressin V2; 10 mg/kg P.O.", "value": 910, "unit": "mOsm/kg"},
      {"measurement": "Urine Volume", "setting": "Vasopressin V2; 10 mg/kg P.O.", "value": 8.8, "unit": "ml/4 hours"}
    ]},
    {"compound": "O=C(Nc1ccc(C(=O)N2CCCCc3sc(Cl)cc32)cc1)c1c(Cl)cccc1Cl", "note": "[Example 95, N-[4-[(2-Chloro-5,6,7,8-tetrahydro-4H-thieno[3,2-b]azepin-4-yl)carbonyl]phenyl]-2,6-dichlorobenzamide]", "values": [
      {"measurement": "IC50", "setting": "[2]", "value": 0.004, "unit": "µM"},
      {"measurement": "Osmolality", "setting": "Vasopressin V2; 10 mg/kg P.O.", "value": 1122, "unit": "mOsm/kg"},
      {"measurement": "Urine Volume", "setting": "Vasopressin V2; 10 mg/kg P.O.", "value": 5, "unit": "ml/4 hours"}
    ]},
    {"compound": "Cc1ccccc1C(=O)Nc1ccc(C(=O)N2CCCCc3sc(Cl)cc32)cc1", "note": "[Example 96, N-[4-[(2-Chloro-5,6,7,8-tetrahydro-4H-thieno[3,2-b]azepin-4-yl)carbonyl]phenyl]-2-methylbenzamide]", "values": [
      {"measurement": "IC50", "setting": "[1]", "value": 0.01, "unit": "µM"},
      {"measurement": "Osmolality", "setting": "Vasopressin V2; 30 mg/kg P.O.", "value": 465, "unit": "mOsm/kg"},
      {"measurement": "Urine Volume", "setting": "Vasopressin V2; 30 mg/kg P.O.", "value": 16.1, "unit": "ml/4 hours"}
    ]},
    {"compound": "Cc1c(F)cccc1C(=O)Nc1ccc(C(=O)N2CCCC(=O)c3sccc32)cc1", "note": "[Example 155, N-[4-[(5,6,7,8-Tetrahydro-8-oxo-4H-thieno[3,2-b]azepine-4-yl)carbonyl]phenyl]-3-fluoro-2-methylbenzamide]", "values": [
      {"measurement": "IC50", "setting": "[1]", "value": 0.25, "unit": "µM"},
      {"measurement": "Osmolality", "setting": "Vasopressin V2; 10 mg/kg P.O.", "value": 1053, "unit": "mOsm/kg"},
      {"measurement": "Urine Volume", "setting": "Vasopressin V2; 10 mg/kg P.O.", "value": 4.5, "unit": "ml/4 hours"}
    ]},
    {"compound": "O=C(Nc1ccc(C(=O)N2CCCC(=O)c3sccc32)cc1)c1ccc(Cl)cc1Cl", "note": "[Example 156, N-[4-[(5,6,7,8-Tetrahydro-8-oxo-4H-thieno[3,2-b]azepin-4-yl)carbonyl]-phenyl]-2,4-dichlorobenzamide]", "values": [
      {"measurement": "IC50", "setting": "[1]", "value": 0.33, "unit": "µM"},
      {"measurement": "Osmolality", "setting": "Vasopressin V2; 10 mg/kg P.O.", "value": 1266, "unit": "mOsm/kg"},
      {"measurement": "Urine Volume", "setting": "Vasopressin V2; 10 mg/kg P.O.", "value": 3.8, "unit": "ml/4 hours"}
    ]},
    {"compound": "Cc1ccccc1C(=O)Nc1ccc(C(=O)N2CCCC(=O)c3sccc32)cc1", "note": "[Example 157, N-[4-[(5,6,7,8-Tetrahydro-8-oxo-4H-thieno[3,2-b]azepin-4-yl)carbonyl]-phenyl]-2-methylbenzamide]", "values": [
      {"measurement": "IC50", "setting": "[1]", "value": 0.25, "unit": "µM"},
      {"measurement": "Osmolality", "setting": "Vasopressin V2; 10 mg/kg P.O.", "value": 1070, "unit": "mOsm/kg"},
      {"measurement": "Urine Volume", "setting": "Vasopressin V2; 10 mg/kg P.O.", "value": 6.5, "unit": "ml/4 hours"}
    ]},
    {"compound": "O=C(Nc1ccc(C(=O)N2CCCCc3sccc32)c(Cl)c1)c1ccc(F)cc1Cl", "note": "[Example 183]", "values": [
      {"measurement": "IC50", "setting": "[2]", "value": 0.0022, "unit": "µM"},
      {"measurement": "Osmolality", "setting": "Vasopressin V2; 10 mg/kg P.O.", "value": 512, "unit": "mOsm/kg"},
      {"measurement": "Urine Volume", "setting": "Vasopressin V2; 10 mg/kg P.O.", "value": 8.3, "unit": "ml/4 hours"}
    ]}
  ]
}
